# Test results from US9566290B2, “Boron-containing small molecules” (Anacor Pharmaceuticals, Inc., priority 2005, dated 2017).
# Read-outs that look alike come from different tables or passages of the source.
# Assays:
# [1] = system: Saccharomyces cerevisiae strain ATCC 201388; assay: MIC (NCCLS M27, YPD or synthetic defined media), haploid parental strain; assay type: cell-based
# Protocol: (§1) The haploid Saccharomyces cerevisiae strain ATCC 201388 was used in the selection of C10 resistant mutants. Spontaneous and EMS-induced resistant mutants were isolated from YPD agar plates containing 4×, 8×, 16×MIC of C10. All minimal inhibitory concentrations (MIC) were determined using NCCLS protocol M27 with the exception of using YPD or synthetic defined media. All yeast and molecular genetic manipulations were essentially performed as described by Guthrie C., et al., Methods in Enzymology, 350: Part B, (2002).
# (§2) The minimal inhibitory concentration (MIC) was essentially performed following the NCCLS guidelines outlined in the M27 protocol with the exception of using YPD or synthetic defined media (SDM).
# [2] = system: S. cerevisiae C10 resistant mutants (CDC60 editing domain mutations); assay: MIC (NCCLS M27), spontaneous and EMS induced C10 resistant mutants; assay type: cell-based, Saccharomyces cerevisiae
# Protocol: as §1
# Resistant mutants appeared after 2 d incubation at 30° C. Frequency of resistance was determined by dividing the number of resistant mutants by the total number of cells plated as determined by plating dilutions of the overnight culture on YPD plates.
# A 2.5 mL of the overnight culture, which was grown in YPD media, was centrifuged at 700×g for 5 minutes. The cell pellet was resuspended in 10 mL 50 mM potassium phosphate buffer, pH 7.0. The cell suspension was centrifuged again and the cell pellet was resuspended in phosphate buffer to obtain a cell density of 5×10^7 cells/mL as determined by counting the cells using a Petroff Hausser Counting Chamber (Horsham, Pa. USA). The cell suspension was shaken with 300 μL of EMS (Alfa Aesar, Ward Hill, Mass., USA) for 30 min. at 30° C. The mutagenesis was stopped by adding 10% (w/v) sodium thiosulfate (Sigma-Aldrich, St. Louis, Mo., USA), and the cells were pelleted by centrifugation at 700×g for 5 min. and resuspended in 1 mL sterile H2O. This was repeated once more before the cells were plated on YPD agar plates containing 1.6 μg/mL of C10.
# as §2
# [3] = assay type: in vitro ADME, human
# Protocol: C10, 5-fluoro-1,3-dihydro-1-phenyl-2,1-benzoxaborole, C1, and 5-fluoro-1,3-dihydro-1-(3-hydroxymethylphenyl)-2,1-benzoxaborole, formulated at 10% w/v in ethanol, were tested. A single aliquot (10 μl) of each formulation was dosed to the top of human nail plates using the nail penetration procedure described below, and allowed to stand for 3-days. The dosed area was washed, and then the cotton ball bed supporting the nail and the nail samples were collected at the end of the incubation period, stored at 4° C. and analyzed for drug using LC/MS/MS.
# Details of the nail incubation have been previously described^9, 10. […] The supporting cotton ball under the nail was wetted by normal saline providing moisture for the nail plate, and the degree of hydration was monitored and controlled during the experiment. […]
# LC/MS/MS (API3000, Applied Biosystems, Foster City, Calif.) was used to quantitate the amounts of non-radiolabeled oxaboroles, C10, 5-fluoro-1,3-dihydro-1-phenyl-2,1-benzoxaborole, C1, and 5-fluoro-1,3-dihydro-1-(3-hydroxymethylphenyl)-2,1-benzoxaborole in samples from the nail penetration studies. […] After centrifugation, the filtrate from the cotton ball samples was transferred to autosampler vials and analyzed by LC/MS/MS. […]
# [4] = system: S. cerevisiae ATCC201388 bearing pRS425 or CDC60 on pRS425; assay: MIC with over-expression of wild type CDC60; assay type: cell-based, Saccharomyces cerevisiae; conditions: Saccharomyces cerevisiae
# Text: as §2
# A 4.0 kb BamH I-Sal I DNA fragment containing the entire CDC60 open reading frame (ORF) and 700 bp of upstream sequence was amplified using KOD DNA polymerase, S. cerevisiae genomic DNA (Novagen, Madison, Wis., USA), and the primers GAGGGATCCGGTTAGTTTTAGTTCGCGAGTGACCTG and GAGGTCGACGATTTCTGGTTGCTGTTTATTGATCTT (Operon, Alameda, Calif., USA). This DNA fragment was then cloned into the […] multi-copy plasmid pRS425, and transformed into S. cerevisiae ATCC201388 (Gietz, R D et al., Methods in Enzymology 305: 87-96 (2002)).
# [5] = Saccharomyces cerevisiae, ATCC201388, Table 2, ATCC201388, read-out: MIC
# [6] = Saccharomyces cerevisiae, Table 2, C10 resistant mutant (C)
# [7] = Saccharomyces cerevisiae, Table 2, C10 resistant mutant (G)
# [8] = Saccharomyces cerevisiae, Table 2, C10 resistant mutant (H)
# [9] = Table 2, C10 resistant mutant (C)
# [10] = Table 2, C10 resistant mutant (G)
# [11] = Table 2, C10 resistant mutant (H)
compound,measurement,setting,value
C[C@@H]1[C@H](O)[C@@H](C)/C=C/C=C/C=C/C=C/C=C/C=C/C=C/[C@H](O[C@@H]2O[C@H](C)[C@@H](O)[C@H](N)[C@@H]2O)C[C@@H]2O[C@](O)(C[C@@H](O)C[C@@H](O)[C@H](O)CC[C@@H](O)C[C@@H](O)CC(=O)O[C@H]1C)C[C@H](O)[C@H]2C(=O)O [Amphotericin B],MIC,"[1]; Table 2, ATCC201388",0.125 µg/mL
same,"resistance of C10 resistant mutants to other antifungals, in words",[2],not resistant
"CSc1ccc(Sc2ccc3c(c2)B(O)OC3)cc1 [C94, 6-(4-(methylthio)phenylthio)benzo[c][1,2]oxaborol-1(3H)-ol]",melting point,,117 to 120 °C
"Cc1ccc(Sc2ccc3c(c2)B(O)OC3)cc1 [C95, 6-(p-tolylthio)benzo[c][1,2]oxaborol-1(3H)-ol]",melting point,,139 to 144 °C
"N#Cc1cccc(COc2ccc3c(c2)COB3O)c1 [C96, 3-((1-hydroxy-1,3-dihydrobenzo[c][1,2]oxaborol-5-yloxy)methyl)benzonitrile]",melting point,,147 to 150 °C
C/C=C/C/C=C/CCC(=O)[C@H]1O[C@H]1C(N)=O [Cerulenin],MIC,"[1]; Saccharomyces cerevisiae, ATCC201388, Table 1, haploid strain ATCC201388, read-out: MIC",1 µg/mL
same,MIC,[1]; [5],0.5 µg/mL
same,"resistance of C10 resistant mutants to other antifungals, in words",[2],not resistant
same,MIC,"[2]; Saccharomyces cerevisiae, Table 1, mutant (A), CDC60 N415D",0.5 µg/mL
same,MIC,"[2]; Saccharomyces cerevisiae, Table 1, mutant (B), CDC60 R316I",0.5 µg/mL
same,MIC,"[2]; Saccharomyces cerevisiae, Table 1, mutant (C), CDC60 C326F",0.5 µg/mL
same,MIC,"[2]; Saccharomyces cerevisiae, Table 1, mutant (D), CDC60 G405V",0.5 µg/mL
same,MIC,"[2]; Saccharomyces cerevisiae, Table 1, mutant (E), CDC60 C326R",0.5 µg/mL
same,MIC,"[2]; Saccharomyces cerevisiae, Table 1, mutant (F), CDC60 D487G",0.5 µg/mL
same,MIC,"[2]; Saccharomyces cerevisiae, Table 1, mutant (G), CDC60 L315V",0.5 µg/mL
same,MIC,"[2]; Saccharomyces cerevisiae, Table 1, mutant (H), CDC60 T314M",0.5 µg/mL
same,MIC,"[2]; Saccharomyces cerevisiae, Table 1, mutant (I), CDC60 S416L",1 µg/mL
same,MIC,"[2]; Saccharomyces cerevisiae, Table 1, mutant (J), CDC60 D487N",1 µg/mL
same,MIC,"[2]; Saccharomyces cerevisiae, Table 1, mutant (K), CDC60 T319I",1 µg/mL
same,MIC,[2]; [6],0.5 µg/mL
same,MIC,[2]; [7],0.5 µg/mL
same,MIC,[2]; [8],0.5 µg/mL
"Fc1ccc2c(c1)COB2c1ccccc1 [Compound 3, 5-fluoro-1,3-dihydro-1-phenyl-2,1-benzoxaborole]","penetration of the nail plate, in words",[3],penetrates the nail plate poorly
C[C@@H]1C[C@@H]([C@H](O)CC2CC(=O)NC(=O)C2)C(=O)[C@@H](C)C1 [Cyclohexamide],MIC,"[1]; Table 2, ATCC201388",<0.06 µg/mL
same,"resistance of C10 resistant mutants to other antifungals, in words",[2],not resistant
same,MIC,[2]; [9],<0.06 µg/mL
same,MIC,[2]; [10],<0.06 µg/mL
same,MIC,[2]; [11],<0.06 µg/mL
"OC(Cn1cncn1)(Cn1cncn1)c1ccc(F)cc1F [Fluconazole, reference compound]",MIC,"[4]; ATCC201388, CDC60 on pRS425 (20 copies)",2 µg/mL
same,MIC,"[4]; ATCC201388, pRS425 Plasmid control",2 µg/mL
CCC(C)n1ncn(-c2ccc(N3CCN(c4ccc(OCC5COC(Cn6cncn6)(c6ccc(Cl)cc6Cl)O5)cc4)CC3)cc2)c1=O (stereo not drawn) [Itraconazole],MIC,[1]; [5],0.125 µg/mL
same,MIC,[2]; [6],0.125 µg/mL
same,MIC,[2]; [7],0.125 µg/mL
same,MIC,[2]; [8],0.125 µg/mL
C[C@@H]([C@H](N)C(=O)N[C@H](C(=O)O)[C@H]1O[C@@H](n2ccc(=O)[nH]c2=O)[C@H](O)[C@@H]1O)[C@H](O)c1ccc(O)cn1 [Nikkomycin Z],MIC,"[1]; Table 2, ATCC201388",64 µg/mL
same,"resistance of C10 resistant mutants to other antifungals, in words",[2],not resistant
same,MIC,[2]; [9],64 µg/mL
same,MIC,[2]; [10],64 µg/mL
same,MIC,[2]; [11],64 µg/mL
CN(C/C=C/C#CC(C)(C)C)Cc1cccc2ccccc12 [Terbinafine],MIC,[1]; [5],4 µg/mL
same,"resistance of C10 resistant mutants to other antifungals, in words",[2],not resistant
same,MIC,[2]; [6],4 µg/mL
same,MIC,[2]; [7],4 µg/mL
same,MIC,[2]; [8],4 µg/mL
Aculeacin A,MIC,"[1]; Table 2, ATCC201388",4 µg/mL
same,"resistance of C10 resistant mutants to other antifungals, in words",[2],not resistant
same,MIC,[2]; [9],4 µg/mL
same,MIC,[2]; [10],4 µg/mL
same,MIC,[2]; [11],4 µg/mL
Tunicamycin,MIC,"[1]; Table 2, ATCC201388",8 µg/mL
same,"resistance of C10 resistant mutants to other antifungals, in words",[2],not resistant
same,MIC,[2]; [9],8 µg/mL
same,MIC,[2]; [10],8 µg/mL
same,MIC,[2]; [11],8 µg/mL
